{"source": "patent US6475530B1", "about": "“Methods and compositions for producing weight loss” (priority 2000, dated 2002)", "origin": "cited, not measured here", "key": {"[1]": {"conditions": "mice; substance by itself"}, "cyclooxygenase": {"tested_on": "cyclooxygenase", "conditions": "single large dose"}, "[2]": {"conditions": "single dose of 300 mg. per day; healthy young adults"}, "growth hormone": {"tested_on": "growth hormone", "conditions": "healthy postmenopausal women; 9 grams per day"}}, "data": [{"smiles": "O=C(O)c1cccnc1", "note": "[nicotinic acid]", "values": [{"measurement": "effect on free fatty acids", "setting": "free fatty acids; given in the daytime", "value": "reduces free fatty acids temporarily, but then there is a rebound effect"}, {"measurement": "duration of reduction in free fatty acids", "setting": "free fatty acids; given nocturnally, constant infusion from 8:00 PM to 6 AM, without rebound effect", "value": 24, "unit": "h"}]}, {"smiles": "CC(=O)Oc1ccccc1C(=O)O", "note": "[aspirin, acetylsalicylic acid]", "values": [{"measurement": "weight loss", "setting": "[1]", "value": "no weight loss"}, {"measurement": "time for prostaglandin levels to return to baseline", "setting": "cyclooxygenase", "value": "≤ 6", "unit": "h"}, {"measurement": "time to gastric erosion", "setting": "[2]", "value": "5 to 7", "unit": "days"}]}, {"smiles": "N=C(N)NCCC[C@H](N)C(=O)O", "note": "[L-arginine]", "values": [{"measurement": "increase in growth hormone", "setting": "growth hormone", "value": 72, "unit": "%"}]}]}
